{"source": "patent US20100317642A1", "about": "“PHARMACEUTICAL COMPOSITION OF ORLISTAT” (INVENTIS DDS PVT LIMITED, priority 2007, published 2010)", "key": {"[1]": {"conditions": "within the physiological pH range; cited from earlier work"}, "[2]": {"assay": "Effect of elevated temperature on appearance and handling properties (hot air oven, Petri dishes)", "assay_type": "physicochemical", "conditions": "for Appearance and handling properties at elevated temperature: hot air oven", "excerpt": "The affect of elevated temperature on appearance and handling properties on the orlistat compositions of this invention was studied by slowly increasing the temperature of a hot air oven in which these compositions were kept in Petri dishes. Pure orlistat also was subjected to this study. To carry out a comparison with the innovator's formulation Xenical®, its contents were emptied in a Petri dish. The observations of this study are given below—"}}}
{"smiles": "CCCCCCCCCCC[C@@H](C[C@@H]1OC(=O)[C@H]1CCCCCC)OC(=O)[C@H](CC(C)C)NC=O", "note": "[Orlistat, orlistat]", "values": [{"measurement": "solubility in water", "setting": "[1]", "result": "very low solubility"}, {"measurement": "Appearance and handling properties at elevated temperature", "setting": "[2]; 30 ° C.", "result": "No change"}, {"measurement": "Appearance and handling properties at elevated temperature", "setting": "[2]; 35 ° C., -do- = same as cell above", "result": "-do-"}, {"measurement": "Appearance and handling properties at elevated temperature", "setting": "[2]; 37 ° C., -do- = same as cell above", "result": "softens"}, {"measurement": "Appearance and handling properties at elevated temperature", "setting": "[2]; 40 ° C.", "result": "Starts melting"}, {"measurement": "Appearance and handling properties at elevated temperature", "setting": "[2]; 45 ° C., cells wrap: 'Slightly soft and sticky', 'Melts completely'", "result": "Melts"}, {"measurement": "Appearance and handling properties at elevated temperature", "setting": "[2]; 50 ° C., -do- = same as cell above, Xenical cell wraps: 'Slightly soft and sticky, becomes powdery on touching'", "result": "-do-"}, {"measurement": "Appearance and hardness after heating", "setting": "[2]; Cooled down to less than 30° C., cells wrap: 'Regains its original hardness', 'Does not retain its original appearance'", "result": "Does not retain"}]}
